# Laboratory results as given in patent US9606124B2, “Methods of detecting and treating stem-cell containing solid tumors” (The Regents of The University of Michigan, priority 2008, dated 2017).
# “Also recorded” adds a separate entry of the source. Read-outs that look alike come from different tables or passages of the source.
# Key:
# [1] = tested on: FAK Tyr397 and AKT Ser473 phosphorylation; assay: Western blotting of FAK/AKT activation in SUM159; format: cell-based, human; details: 100 nM, two days
# Protocol: (§1) Western blotting. Cells were lysed in a laemmli buffer and loaded onto SDS-polyacrylamide gels. Blots were incubated with the respective primary antibodies diluted in TBST (containing 0.1% Tween20 and 2% BSA) either overnight at 4o, or 2 hours at room temperature. Blots were washed and incubated with appropriate secondary antibodies (GE Healthcare, UK) and detected using SuperSignal West Pico Chemiluminescent Substrate (Pierce).
# [2] = tested on: FAK Tyr397 and AKT Ser473 phosphorylation; assay: Western blotting of FAK/AKT activation in MDA-MB-453; format: cell-based, human
# Protocol: as §1
# [3] = tested on: SUM159 PTEN-siRNA and SUM159 Ad-FAK cells; assay: Repertaxin on SUM159 PTEN-siRNA and SUM159 Ad-FAK cells (western, immunofluorescence, MTT, ALDEFLUOR); format: cell-based, human; details: for FAK and AKT activity / FOXO3A activation in cells with PTEN deletion or FAK overexpression: 100 nM, two days
# Description: Cell viability. […] Nuclei were counterstained with DAPI/antifade (Invitrogen).
# ALDEFLUOR assay. The ALDEFLUOR kit (StemCell technologies) was used to isolate the population with high ALDH enzymatic activity using a FACStarPLUS (Becton Dickinson) as previously described (Ginestier et al. Cell Stem Cell 1:555-567, herein incorporated by reference in its entirety). In order to eliminate cells of mouse origin from the xenotransplanted tumors, cell population was stained with an anti-H2Kd antibody (BD biosciences, 1/200, 20 min on ice) followed by staining with a secondary antibody labeled with phycoerythrin (PE) (Jackson labs, 1/250, 20 min on ice).
# as §1
# (§2) Immunostaining. For immunofluorescent staining, sorted CXCR1-positive cells were fixed with 95% methanol at −20° C. for 10 minutes. Cells were rehydrated in PBS and incubated with respective antibodies at room temperature for 1 hour. Primary antibodies used were P-FAK (1:50, Cell Signaling Technology), P-AKT (1:300, Cell Signaling Technology), and FOXO3a (1:250, Cell Signaling Technology). Slides were then washed and incubated 30 minutes with PE conjugated secondary antibodies (Jackson labs). The nuclei were counterstained with DAPI/antifade (Invitrogen) and coverslipped. […] Immunohistochemistry for the detection of ALDH1 (1:100, BD biosciences), P-FAK, P-AKT, FOXO3a expression was done on paraffin section (Ginestier et al. Am. J Pathol. 161:1223-1233, herein incorporated by reference in its entirety). Staining was done utilizing the Histostainplus kit (Zymed laboratories). Diaminobenzidine (DAB) or 3-amino-9-ethylcarbazole (AEC) was used as chromogen and sections were counterstained with hematoxylin.
# Virus infection. […] All lentiviral constructs were prepared by the University of Michigan Vector. An adenoviral construct for the overexpression of FAK (Ad-FAK-GFP) was also utilized (Luo et al. Cancer Res. 69:466-474, herein incorporated by reference in its entirety). Cells infection with different vectors was performed as previously described (Charafe-Jauffret et al. Cancer Res. 69:1302-1313, herein incorporated by reference in its entirety). Efficiency of infection was verified by measuring the percentage of DsRed or GFP expressing cells.
# [4] = tested on: SUM159 cell line and human breast cancer xenografts MC1, UM2, UM3; assay: Tumor growth of breast cancer xenografts in the mammary fat pad; format: in vivo, NOD/SCID mice; details: repertaxin 15 mg/Kg s.c. twice a day 28 days, docetaxel 10 mg/Kg i.p. once a week, start at tumor size about 4 mm
# Protocol: For each sample, 50,000 cells were injected into the mammary fat pad of NOD-SCID mice which were monitored for tumor size. Injections were started when the tumor size was about 4 mm.
# (§3) Animal model. […] Cells from these tumors were transplanted orthotopically in the humanized cleared fat-pad of NOD/SCID mice, without cultivation in vitro. […] 50,000 cells from each xenotransplants were injected in the humanized fat pad of NOD/SCID mice and monitored the tumor growth. […] The animals were euthanized when the tumors were approximately 1.5 cm in the largest diameter, to avoid tumor necrosis and in compliance with regulations for use of vertebrate animal in research. A portion of each fat pad injected was fixed in formalin and embedded in paraffin for histological analysis. The rest of the tumor cells were re-implantated into secondary NOD/SCID mice. Serial dilutions of cells were utilized for the re-implantation with injection of 10,000, 1,000, and 100 cells for each treated tumor.
# [5] = tested on: cells from primary tumors SUM159, MC1, UM2, UM3; assay: Re-implantation of cells from treated tumors into secondary mice; format: in vivo, NOD/SCID mice; details: for secondary tumor formation / regrowth from serial dilutions of treated primary tumors: secondary NOD/SCID mice, no further treatment
# Protocol: as §3, with “Serial dilutions of cells were utilized for the re-implantation with injection of 10,000, 1,000, and 100 cells for each treated tumor.” left out
# phospho-AKT = assay: Immunohistochemistry of phospho-AKT in xenotransplants; parameters: species or system NOD/SCID mice; details: mouse, in vivo
# Protocol: as §2
structure (smiles),measurement,setting,value
CC(C)Cc1ccc([C@@H](C)C(=O)NS(C)(=O)=O)cc1 [Repertaxin],FAK Tyr397 and AKT Ser473 phosphorylation (western blot),[1],decrease in FAK Tyr397 and AKT Ser473 phosphorylation
same,FAK Tyr397 and AKT Ser473 phosphorylation (western blot),[1]; listed as repertaxin,decrease in FAK Tyr^397 and AKT Ser^473 phosphorylation
same,FAK Tyr397 and AKT Ser473 phosphorylation (western blot),[2],No modification
same,ALDEFLUOR-positive population of cells with PTEN deletion or FAK overexpression,[3],did not alter the proportion of ALDEFLUOR-positive SUM159 PTEN knockdown cells
same,FAK and AKT activity / FOXO3A activation in cells with PTEN deletion or FAK overexpression,[3],did not induce FOXO3A activation
same,FAK and AKT activity / FOXO3A activation in cells with PTEN deletion or FAK overexpression,[3]; listed as repertaxin,PTEN knockdown blocked the effect of repertaxin treatment on FAK and AKT activity; also recorded: PTEN deletion and FAK overexpression blocked the effect of repertaxin treatment on FAK and AKT activity
same,cell viability (MTT) of cells with PTEN deletion or FAK overexpression,[3]; 3 days of treatment,did not display any decrease in cell viability; also recorded: developed resistance to repertaxin
same,ALDEFLUOR-positive population of cells with PTEN deletion or FAK overexpression,[3]; listed as repertaxin,maintenance of the ALDELFUOR-positive populations
same,tumor size / tumor growth compared to the control,[4],moderate impact on tumor growth
same,tumor size / tumor growth compared to the control,[4]; listed as Reperataxin,no significant difference
same,tumor size / tumor growth compared to the control,[4]; listed as repertaxin,no difference
same,reduction in tumor growth in secondary mice compared to cells from control or docetaxel-treated animals,[5]; equal numbers of cells injected,2-5 fold
same,Tumors/Injections,[5]; number of cells injected 100,0/9
same,Tumors/Injections,[5]; number of cells injected 250,0/2
same,Tumors/Injections,[5]; number of cells injected 500,1/3
same,Tumors/Injections,"[5]; number of cells injected 1,000",4/8
same,Tumors/Injections,"[5]; number of cells injected 2,500",2/2
same,Tumors/Injections,"[5]; number of cells injected 5,000",2/2
same,Tumors/Injections,"[5]; number of cells injected 10,000",4/4
same,secondary tumor formation / regrowth from serial dilutions of treated primary tumors,[5],reduced tumor growth in secondary recipients; also recorded: only higher numbers of cells
same,secondary tumor formation / regrowth from serial dilutions of treated primary tumors,[5]; listed as Reperatxin,delayed secondary tumors which were significantly smaller in size
same,cells expressing phospho-AKT in treated tumors,phospho-AKT,complete inhibition; also recorded: no expression was detected
